In patent US20260108687A1 (Belhaven BioPharma Inc., priority 2024, published 2026):

Experiment: Phase 1 clinical study / Study 101: plasma epinephrine pharmacokinetics
Type: in vivo
Details: human, 0.3 mg IM, read-out: mean baseline-corrected Cmax
Procedure: Twelve human subjects participated in the open-label, single sequence crossover study. […] The subjects returned for a safety follow up visit 3 to 5 days after the final treatment.
The dry powder formulation was administered via intranasal instillation once using a nasal device (APTAR). The IM solution and materials were supplied by the study site and prepared according to the local procedures. The study drug was administered at approximately the same time on each treatment day. There was a washout period of 20 days between the nasal doses administered as treatment A and treatment D. The subjects were admitted to the clinical site the day before each treatment administration and remained on site until at least 8 hours post-dose, or when applicable, until 24 hours post-dose of the specific treatment period. The study drug was administered after at least a 10 hour fast. A standardized meal was provided approximately 4 hours after dosing. […]
Noncompartmental analysis was performed on individual human subject plasma concentration-time data using nominal doses and actual blood sampling times. […] Baseline correction was accomplished using the average of the measured concentrations at nominal times of −60, −30, and 0 minutes before dosing. […]

**Q.** With `CNC[C@H](O)c1ccc(O)c(O)c1` [Epinephrine IM, epinephrine] as the compound, how does the Cmax read?
**A.** 184 µg/mL
